Measured values taken from article PMC7156458, “Synthetic biology based construction of biological activity-related library of fungal decalin-containing diterpenoid pyrones” (Nature Communications, 2020).

Molecular target: Aβ42 (Homo sapiens, UniProt P05067)
Test: Th-T (thioflavin-T) assay of Aβ42 aggregation
Type: biochemical
Details: for Th-T fluorescence of Aβ42 with compound, mean of three wells (Fig. 7a source data): concentration 50, unit not given

Sequence of Aβ42 (P05067 672-713): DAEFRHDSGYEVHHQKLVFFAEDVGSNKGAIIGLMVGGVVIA

C=C1CCC2C(C)(CCC=C(C)C)C(O)CCC2(C)C1Cc1c(OC)oc(CO)c(C(=O)OC)c1=O (stereo not drawn) [Compound 13]
Th-T fluorescence of Aβ42 with compound, mean of three wells (Fig. 7a source data) (time-course reading M143): 0.478 | Th-T fluorescence of Aβ42 with compound, mean of three wells (Fig. 7a source data) (time-course reading M144): 0.478 | Th-T fluorescence of Aβ42 with compound, mean of three wells (Fig. 7a source data) (time-course reading M145): 0.4736 | Th-T fluorescence of Aβ42 (sheet Fig. 7a), mean of three wells (head suffix _10 (concentration 10), reading M63): 1.556 | Th-T fluorescence of Aβ42 (sheet Fig. 7a), mean of three wells (head suffix _10 (concentration 10), reading M64): 1.557 | Th-T fluorescence of Aβ42 (sheet Fig. 7a), mean of three wells (head suffix _10 (concentration 10), reading M65): 1.551 | Th-T fluorescence of Aβ42 (sheet Fig. 7a), mean of three wells (head suffix _10 (concentration 10), reading M66): 1.553 | Th-T fluorescence of Aβ42 (sheet Fig. 7a), mean of three wells (head suffix _10 (concentration 10), reading M67): 1.558 | Th-T fluorescence of Aβ42 (sheet Fig. 7a), mean of three wells (head suffix _10 (concentration 10), reading M68): 1.564 | Th-T fluorescence of Aβ42 (sheet Fig. 7a), mean of three wells (head suffix _10 (concentration 10), reading M69): 1.56 | Th-T fluorescence of Aβ42 (sheet Fig. 7a), mean of three wells (head suffix _10 (concentration 10), reading M70): 1.554 | Th-T fluorescence of Aβ42 (sheet Fig. 7a), mean of three wells (head suffix _10 (concentration 10), reading M71): 1.549 | Th-T fluorescence of Aβ42 (sheet Fig. 7a), mean of three wells (head suffix _10 (concentration 10), reading M72): 1.561 | Th-T fluorescence of Aβ42 (sheet Fig. 7a), mean of three wells (head suffix _10 (concentration 10), reading M73): 1.566 | Th-T fluorescence of Aβ42 (sheet Fig. 7a), mean of three wells (head suffix _10 (concentration 10), reading M74): 1.559 | Th-T fluorescence of Aβ42 (sheet Fig. 7a), mean of three wells (head suffix _10 (concentration 10), reading M75): 1.561 | Th-T fluorescence of Aβ42 (sheet Fig. 7a), mean of three wells (head suffix _10 (concentration 10), reading M76): 1.555 | Th-T fluorescence of Aβ42 (sheet Fig. 7a), mean of three wells (head suffix _10 (concentration 10), reading M77): 1.558 | Th-T fluorescence of Aβ42 (sheet Fig. 7a), mean of three wells (head suffix _10 (concentration 10), reading M78): 1.561 | Th-T fluorescence of Aβ42 (sheet Fig. 7a), mean of three wells (head suffix _10 (concentration 10), reading M79): 1.5579 | Th-T fluorescence of Aβ42 (sheet Fig. 7a), mean of three wells (head suffix _10 (concentration 10), reading M80): 1.555 | Th-T fluorescence of Aβ42 (sheet Fig. 7a), mean of three wells (head suffix _10 (concentration 10), reading M81): 1.559 | Th-T fluorescence of Aβ42 (sheet Fig. 7a), mean of three wells (head suffix _10 (concentration 10), reading M82): 1.556 | Th-T fluorescence of Aβ42 (sheet Fig. 7a), mean of three wells (head suffix _10 (concentration 10), reading M83): 1.5605 | Th-T fluorescence of Aβ42 (sheet Fig. 7a), mean of three wells (head suffix _10 (concentration 10), reading M84): 1.551 | Th-T fluorescence of Aβ42 (sheet Fig. 7a), mean of three wells (head suffix _20 (concentration 20), reading M63): 1.031 | Th-T fluorescence of Aβ42 (sheet Fig. 7a), mean of three wells (head suffix _20 (concentration 20), reading M64): 1.035 | Th-T fluorescence of Aβ42 (sheet Fig. 7a), mean of three wells (head suffix _20 (concentration 20), reading M65): 1.042 | Th-T fluorescence of Aβ42 (sheet Fig. 7a), mean of three wells (head suffix _20 (concentration 20), reading M66): 1.05 | Th-T fluorescence of Aβ42 (sheet Fig. 7a), mean of three wells (head suffix _20 (concentration 20), reading M67): 1.057 | Th-T fluorescence of Aβ42 (sheet Fig. 7a), mean of three wells (head suffix _20 (concentration 20), reading M68): 1.061 | Th-T fluorescence of Aβ42 (sheet Fig. 7a), mean of three wells (head suffix _20 (concentration 20), reading M69): 1.053 | Th-T fluorescence of Aβ42 (sheet Fig. 7a), mean of three wells (head suffix _20 (concentration 20), reading M70): 1.058 | Th-T fluorescence of Aβ42 (sheet Fig. 7a), mean of three wells (head suffix _20 (concentration 20), reading M71): 1.058 | Th-T fluorescence of Aβ42 (sheet Fig. 7a), mean of three wells (head suffix _20 (concentration 20), reading M72): 1.061 | Th-T fluorescence of Aβ42 (sheet Fig. 7a), mean of three wells (head suffix _20 (concentration 20), reading M73): 1.063 | Th-T fluorescence of Aβ42 (sheet Fig. 7a), mean of three wells (head suffix _20 (concentration 20), reading M74): 1.057 | Th-T fluorescence of Aβ42 (sheet Fig. 7a), mean of three wells (head suffix _20 (concentration 20), reading M75): 1.056 | Th-T fluorescence of Aβ42 (sheet Fig. 7a), mean of three wells (head suffix _20 (concentration 20), reading M76): 1.058 | Th-T fluorescence of Aβ42 (sheet Fig. 7a), mean of three wells (head suffix _20 (concentration 20), reading M77): 1.059 | Th-T fluorescence of Aβ42 (sheet Fig. 7a), mean of three wells (head suffix _20 (concentration 20), reading M78): 1.0603 | Th-T fluorescence of Aβ42 (sheet Fig. 7a), mean of three wells (head suffix _20 (concentration 20), reading M79): 1.056 | Th-T fluorescence of Aβ42 (sheet Fig. 7a), mean of three wells (head suffix _20 (concentration 20), reading M80): 1.0496 | Th-T fluorescence of Aβ42 (sheet Fig. 7a), mean of three wells (head suffix _20 (concentration 20), reading M81): 1.051 | Th-T fluorescence of Aβ42 (sheet Fig. 7a), mean of three wells (head suffix _20 (concentration 20), reading M82): 1.061 | Th-T fluorescence of Aβ42 (sheet Fig. 7a), mean of three wells (head suffix _20 (concentration 20), reading M83): 1.058 | Th-T fluorescence of Aβ42 (sheet Fig. 7a), mean of three wells (head suffix _20 (concentration 20), reading M84): 1.053 | Th-T fluorescence of Aβ42 (sheet Fig. 7a), mean of three wells (head suffix _50 (concentration 50), reading M63): 0.4695 | Th-T fluorescence of Aβ42 (sheet Fig. 7a), mean of three wells (head suffix _50 (concentration 50), reading M64): 0.467 | Th-T fluorescence of Aβ42 (sheet Fig. 7a), mean of three wells (head suffix _50 (concentration 50), reading M65): 0.4693 | Th-T fluorescence of Aβ42 (sheet Fig. 7a), mean of three wells (head suffix _50 (concentration 50), reading M66): 0.4724 | Th-T fluorescence of Aβ42 (sheet Fig. 7a), mean of three wells (head suffix _50 (concentration 50), reading M67): 0.4748 | Th-T fluorescence of Aβ42 (sheet Fig. 7a), mean of three wells (head suffix _50 (concentration 50), reading M68): 0.4706 | Th-T fluorescence of Aβ42 (sheet Fig. 7a), mean of three wells (head suffix _50 (concentration 50), reading M69): 0.4713 | Th-T fluorescence of Aβ42 (sheet Fig. 7a), mean of three wells (head suffix _50 (concentration 50), reading M70): 0.4681 | Th-T fluorescence of Aβ42 (sheet Fig. 7a), mean of three wells (head suffix _50 (concentration 50), reading M71): 0.4721 | Th-T fluorescence of Aβ42 (sheet Fig. 7a), mean of three wells (head suffix _50 (concentration 50), reading M72): 0.4741
